Here are results for three molecules from US10842772B1, “Cannabis-based bioactive formulations and methods for use thereof” (priority 2016, dated 2020).

Each structure is given as a SMILES string. Counter-ions that a name gives are not always drawn.

In one data set the test system is CB1 and CB2 receptors. The conditions noted are these: cited from earlier work.
For data set [1] the following is noted: cited from earlier work.
For data set [2], the system named is patients experiencing ADHD-related symptoms or ASD-related symptoms. Kind of data set: Example 3: group study, THC versus placebo. It counts as in vivo, human. Conditions: THC or Marinol versus placebo; re-evaluation after 2-3 weeks adjustment. The procedure:
In patients experiencing ADHD-related symptoms or ASD-related symptoms, obtain baseline measures (using, reports, observations or tests described above) of the symptoms and deficits commonly associated with the conditions. Administer THC, or a synthetic substitute such as Marinol® at a specific dose, to half of the group and administer a placebo to the remainder of the participants. The group that is administered THC should be allowed at least 2-3 weeks to acclimate to THC. After the several week adjustment period, all patients should be re-evaluated using the same or similar tests, observations and reports upon which initial measures of symptoms and deficits were made.

Data set [3] concerns Patient 1 (anxiety, depression, OCD, ADHD-related symptoms). Kind of data set: Example 2: treatment of Patient 1 with THC (vaporized, then edible). It counts as in vivo, human. The procedure: Following cessation of efficacy of Zoloft, Patient 1 obtained a prescription for medical marijuana. Patient 1 began by vaporizing marijuana buds and later vaporizing THC wax and oil concentrates.
Patient 1 began consuming THC in edible form at doses ranging from 10-35 mg every 4-6 hours. Initially, Patient 1 consumed 10-20 mg for approximately 1-2 months, and then increased the dose to 30-35 mg. […] Patient 1 used orally consumed THC as a medicament for at least 9 months during which time they observed and recorded the changes in their mood, movements, cognition and behavior while practicing law working, raising children, and otherwise functioning in their daily life. […] Patient 1 continued to use the SSRI Zoloft during approximately the first 2 months of this 9-month period, but thereafter discontinued the use of Zoloft.
Patient 1 reports that symptom relief seems tied to THC's slowing of their perception of time, which results in cascading (positive) effects on their mood, movements, cognition and behavior.

Another data set has as its target CB2 receptor (Homo sapiens, UniProt P34972). Conditions: cited from earlier work.
The subject of data set [4] is Patient 1 (anxiety, depression, OCD, substance abuse, ADHD). Briefly: Example 1: treatment of Patient 1 with Zoloft. It is filed as in vivo, human. As to the method:
Patient 1 was also a regular user of alcohol and a recreational user of cocaine. Patient 1 was prescribed selective serotonin reuptake inhibitor (SSRI) Zoloft, at 25 mg with doses increasing up to 200 mg over the course of approximately 6-8 months. The dose of Zoloft/sertraline used was 25-200 mg.

The next data set addresses GPR55 (Homo sapiens, UniProt Q9Y2T6). Conditions: putative new cannabinoid receptor; cited from earlier work.
Another data set addresses T1, 5-HT1A receptor (Homo sapiens, UniProt P08908).
T1 sequence (P08908 1-422): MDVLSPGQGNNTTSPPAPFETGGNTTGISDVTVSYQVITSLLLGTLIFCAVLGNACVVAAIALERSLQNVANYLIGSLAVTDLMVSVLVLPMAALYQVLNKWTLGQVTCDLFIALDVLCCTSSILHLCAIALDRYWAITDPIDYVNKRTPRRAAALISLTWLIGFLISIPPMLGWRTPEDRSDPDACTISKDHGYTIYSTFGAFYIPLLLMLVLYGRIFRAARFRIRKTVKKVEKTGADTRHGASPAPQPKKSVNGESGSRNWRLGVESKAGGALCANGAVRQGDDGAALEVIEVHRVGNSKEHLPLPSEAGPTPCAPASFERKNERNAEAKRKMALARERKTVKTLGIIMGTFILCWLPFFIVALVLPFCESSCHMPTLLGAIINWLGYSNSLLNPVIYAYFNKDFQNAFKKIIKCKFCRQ
Conditions: cited from earlier work.

Setting [5] is: THC in edible form 10-35 mg every 4-6 hours.

Chain of GPR55 (Q9Y2T6 whole entry, species assumed): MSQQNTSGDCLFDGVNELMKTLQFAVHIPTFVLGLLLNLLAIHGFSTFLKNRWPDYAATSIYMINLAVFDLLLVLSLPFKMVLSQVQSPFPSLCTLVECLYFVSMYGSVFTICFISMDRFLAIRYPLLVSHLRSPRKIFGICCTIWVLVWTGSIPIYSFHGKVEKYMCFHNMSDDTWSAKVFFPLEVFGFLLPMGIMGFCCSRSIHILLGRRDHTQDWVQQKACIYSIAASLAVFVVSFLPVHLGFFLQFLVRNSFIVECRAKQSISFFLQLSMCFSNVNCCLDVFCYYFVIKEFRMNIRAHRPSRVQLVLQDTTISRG
Chain of CB2 receptor (P34972 whole entry): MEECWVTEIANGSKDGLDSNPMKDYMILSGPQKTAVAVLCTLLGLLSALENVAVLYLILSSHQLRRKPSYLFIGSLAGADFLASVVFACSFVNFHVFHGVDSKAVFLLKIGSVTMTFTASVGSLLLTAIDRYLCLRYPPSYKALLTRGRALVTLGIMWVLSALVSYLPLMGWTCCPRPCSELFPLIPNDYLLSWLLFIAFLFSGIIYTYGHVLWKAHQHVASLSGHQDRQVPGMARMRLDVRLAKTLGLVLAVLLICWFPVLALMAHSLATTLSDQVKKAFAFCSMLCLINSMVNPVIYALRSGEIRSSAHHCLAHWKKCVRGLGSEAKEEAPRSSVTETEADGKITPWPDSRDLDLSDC

On to `CCCCCc1cc(O)c2c(c1)OC(C)(C)[C@@H]1CCC(C)=C[C@@H]21` [THC, (−)-(6aR,10aR)-6,6,9-trimethyl-3-pentyl-6a,7,8,10a-tetrahydro-6H-benzo[c] chromen-1-ol], for which the “relative affinity for CB1 versus CB2 receptor” value in the data set on CB1 and CB2 receptors is listed as “approximately equal affinity”. Besides, in data set [1] (Absorption), the peak plasma time is 0.5 to 4 h. For the same molecule, the protein bound in data set [1] (Distribution) is recorded as 90-99%. Also, in data set [1] (Elimination), the “excretion: feces” value is given as 50%; the “excretion: urine” value was 15%; the “half-life, parent drug” value is 25 to 36 h; the renal clearance is 18 to 20 mL/min. Moreover, the total body clearance in data set [1] (Elimination) is 3.3 mL/min/kg. Moreover, the Metabolism result in data set [1] (in vivo) was “extensive first-pass hepatic metabolism”. For the same molecule, the “symptoms and deficits associated with ASD and ADHD” value in data set [2] is “reduce or eliminate”. In data set [3] (setting [5]), the “OCD and ADHD-related symptoms” value is “elimination”; the “ability to focus and concentrate on reading, writing, and interpersonal interactions” value was “increased ability to focus and concentrate”; the “anxiety, depression” value is reported as “significant reduction”; the perception of time entry is recorded as “slowed perception of time”. The side effects entry in data set [3] (edible THC, after initial adjustment period of approximately 2 weeks) is recorded as “No significant side effects”. In data set [3] (orally-consumed THC), the “ability to read body language and facial expressions” value is “increase in their ability to read body language and facial expressions”; the “alcohol and cocaine use” value is “rarely consumed alcohol and stopped using cocaine”; the “coordination and balance, fine motor skills” value was “improvements in coordination and balance”; the “interpersonal relationships at home and in the workplace” value is on record as “improvement in interpersonal relationships”. Further, in data set [3] (orally-consumed THC), the “propensity to interrupt while orally communicating” value is “reduced propensity to interrupt”; the “sensitivity to peripheral noise and other distractions” value is on record as “reduction in sensitivity”; the “visualizing images described in writings, sense of direction” value is “increased ability to visualize images described in writings and an improved sense of direction”. Moreover, the “activity at CB2 receptor” value at CB2 receptor is reported as “partial agonist”.

For `CN[C@H]1CC[C@@H](c2ccc(Cl)c(Cl)c2)c2ccccc21` [Zoloft, sertraline HCl], in data set [4] (25 mg increasing up to 200 mg over 6-8 months, at initial dose and each incremental increase), the “treating anxiety, depression, OCD, substance abuse and ADHD” value is “initially effective”. Besides, in data set [4] (25-200 mg, after dosage increases), the persistence of effects entry is “effects wore off at varying intervals”.

`C=C(C)[C@@H]1CCC(C)=C[C@H]1c1c(O)cc(CCCCC)cc1O` [CBD, cannabidiol]: in the data set on CB1 and CB2 receptors, the “affinity for CB1 and CB2 receptors” value was “little affinity”; the “relative affinity for CB1 versus CB2 receptor” value is given as “greater affinity for the CB2 receptor”. On GPR55, the “activity at GPR55” value is on record as “antagonist”. Also, the “activity at 5-HT1A receptor” value at 5-HT1A receptor was “agonist”.
